Laboratory results: ChEMBL document CHEMBL1130043, “Chemometric methodologies in a quantitative structure-activity relationship study: the antibacterial activity of 6-aminoquinolones” (1997)

Experiments:
Format in all cases: functional
[1] = system: Pseudomonas aeruginosa; assay: Antibacterial activity against Pseudomonas aeruginosa ATCC 9027(Gram negative) strain.
[2] = system: Staphylococcus epidermidis; assay: Antibacterial activity against Staphylococcus epidermidis HCF Berset C (Gram positive) strain.
[3] = system: Staphylococcus aureus; assay: Antibacterial activity against Staphylococcus aureus ATCC 6538 (Gram positive) strain.
[4] = system: Klebsiella pneumoniae; assay: Antibacterial activity against Klebsiella pneumoniae ATCC 10031 (Gram negative) strain.
[5] = system: Staphylococcus aureus; assay: Antibacterial activity against Staphylococcus aureus MPR 5 (Gram positive) strain.
[6] = system: Enterobacter cloacae; assay: Antibacterial activity against Enterobacter cloacae OMNFI 174 (Gram negative) strain.
[7] = system: Escherichia coli; assay: Antibacterial activity against Escherichia coli ATCC 8739(Gram negative) strain.
[8] = system: Providencia stuartii; assay: Antibacterial activity against Providencia stuartii CNUR 5(Gram negative) strain.
[9] = system: Staphylococcus epidermidis; assay: The compound was tested in vitro for antibacterial activity against Staphylococcus epidermidis CPHL A2 (Gram positive) strain
[10] = system: Escherichia coli; assay: Antibacterial activity against Escherichia coli ISF 432(Gram negative) strain.
[11] = system: Enterococcus faecalis; assay: Antibacterial activity against Streptococcus faecalis LEP Br (Gram positive) strain.
[12] = system: Shigella; assay: Antibacterial activity against Shigella enteritidis (Gram negative) strain.
[13] = system: Acinetobacter calcoaceticus; assay: Antibacterial activity against Acinetobacter calcoaceticus OSMPV 113 (Gram negative) strain.
[14] = system: Staphylococcus epidermidis; assay: Antibacterial activity against Staphylococcus epidermidis CPHL A2 (Gram positive) strain, activity is expressed as log2MIC.

| Compound | Log2 MIC [1] | Log2 MIC [2] | Log2 MIC [3] | Log2 MIC [4] | Log2 MIC [5] | Log2 MIC [6] | Log2 MIC [7] | Log2 MIC [8] | Log2 MIC [9] | Log2 MIC [10] | Log2 MIC [11] | Log2 MIC [12] | Log2 MIC [13] | Log2 MIC [14] |
| --- | --- | --- | --- | --- | --- | --- | --- | --- | --- | --- | --- | --- | --- | --- |
| Cc1c(N2CCN(C)CC2)c(N)cc2c(=O)c(C(=O)O)cn(C3CC3)c12 | 6 | 7 | 8 | 12 | 8 | 10 | 12 | 6 | 7 | 12 | 5 | 11 |  |  |
| CC(=O)NC1CCN(c2c(N)cc3c(=O)c(C(=O)O)cn(C4CC4)c3c2C)C1 (stereo not given) | 3 | 3 | 3 | 9 | 3 | 5 | 10 | 2 | 3 | 10 | 1 | 5 | 5 |  |
| NCCSc1cc2c(cc1N)c(=O)c(C(=O)O)cn2C1CC1 | 0 | 0 | 0 | 6 | 0 | 0 | 7 | 0 |  | 7 | 0 | 0 | 0 | 0 |
| CN1CCN(c2cc3c(c(N)c2N)c(=O)c(C(=O)O)cn3C2CC2)CC1 | 0 | 0 | 0 | 2 | 0 | 0 | 3 | 0 |  | 3 | 0 | 0 | 0 | 0 |
| CC(=O)NC1CCN(c2cc3c(cc2N)c(=O)c(C(=O)O)cn3C2CC2)C1 (stereo not given) | 0 | 0 | 0 | 5 | 0 | 0 | 5 | 0 | 0 | 5 | 0 | 0 | 0 |  |
| Cc1c(N2CCOCC2)c(N)cc2c(=O)c(C(=O)O)cn(C3CC3)c12 | 7 | 10 | 10 | 12 | 10 | 10 | 12 | 8 | 9 | 12 | 7 | 10 |  |  |
| Nc1cc2c(=O)c(C(=O)O)cn(-c3ccc(F)cc3)c2cc1N1CCSCC1 | 0 | 5 | 8 | 12 | 7 | 5 | 11 | 5 |  | 12 | 0 | 5 | 5 | 5 |
| CN1CCN(c2cc3c(cc2N)c(=O)c(C(=O)O)cn3-c2ccc(F)cc2)CC1 | 4 | 4 | 4 | 10 | 5 | 5 | 10 | 5 |  | 10 | 1 | 5 | 3 | 4 |
| Cc1c(N2CCC(O)CC2)c(N)cc2c(=O)c(C(=O)O)cn(C3CC3)c12 | 6 | 11 | 11 | 12 | 10 | 8 | 7 | 7 | 11 | 12 | 8 | 9 | 10 |  |
